The values that follow are results of earlier work, collected in patent US20200221696A1, “ACTIVE […] FORMULATION FOR I[…] AND OBTAINED PAINT” (priority 2018, published 2020).

Molecules are shown by their SMILES. “Also recorded” adds a separate entry of the source. Like-named read-outs stand apart in the source and are kept apart here.

The conditions of this data set: aqueous medium; for Decomposition time (Mean life): stability in words: pH.

Take `CCOP(=S)(OCC)Oc1nc(Cl)c(Cl)cc1Cl` [Chlorpyrifos]: the “Decomposition time (Mean life): stability in words” value (shortened to “Decomposition time … in words”) was “Stable in neutral and slightly acid”. For the same compound, where the note is “pH 10”, the “Decomposition time (Mean life)” value is given as 7 days.

With `CC1(C)C(C=C(Cl)Cl)C1C(=O)OC(C#N)c1cccc(Oc2ccccc2)c1` (centres unmarked) [Cypermethrin], the “Decomposition time (Mean life)” value (pH 9) is 7 days.

In the case of `C=CCC1=C(C)C(OC(=O)C2C(C=C(C)C)C2(C)C)CC1=O` [D-allethrin], the “Decomposition time … in words” value was “Stable at pH 5 after 31 days”. The “Decomposition time (Mean life)” value (pH 7) was 500 days. Also, the “Decomposition time (Mean life)” value (pH 9) is listed as “(4.3 days)”.

For `CC1(C)[C@H](C(=O)O[C@H](C#N)c2cccc(Oc3ccccc3)c2)[C@@H]1C=C(Br)Br` [Deltamethrin], the “Decomposition time … in words” value was “more stable in medium acid solutions”. The “Decomposition time (Mean life)” value (pH 7) was 0.33 days.

For the compound `CCOP(=S)(OCC)Oc1cc(C)nc(C(C)C)n1` [Diazinon], the “Decomposition time (Mean life)” value by setting is: (pH 5) 31 days; (pH 7.5) 185 days; (pH 9) 136 days.

Consider `O=C(NC(=O)c1c(F)cccc1F)Nc1ccc(Cl)cc1` [Diflubenzuron], for which the “Decomposition time … in words” value was “Stable in a pH range from 5 to 7; also recorded: Hydrolyzed at pH 9”.

As for `CCOC(=O)CC(SP(=S)(OC)OC)C(=O)OCC` (centres unmarked) [Malathion], the “Decomposition time … in words” value is reported as “Quickly hydrolyzed at pH over 7. The optimal pH”.

As for `CC1(C)C(C=C(Cl)Cl)C1C(=O)OCc1cccc(Oc2ccccc2)c1` (centres unmarked) [Permethrin], the “Decomposition time … in words” value was “Stable at pH between 5 and 6”.

Consider `CCN(CC)c1nc(C)cc(OP(=S)(OC)OC)n1` [Pirimiphos-methyl], for which the “Decomposition time (Mean life)” value is 7 days (pH 5) and 5 days (pH 8).

Regarding `CC(COc1ccc(Oc2ccccc2)cc1)Oc1ccccn1` (centres unmarked) [Pyriproxifen], the “Decomposition time … in words” value was “Stable in pH between 4 and 9”.
